Measurements from ChEMBL document CHEMBL3271999, “Antimycotic imidazoles. 2. Synthesis and antimycotic properties of 1-[2-(arylalkyl)-2-phenylethyl]-1H-imidazoles” (1977).
Calls of active or inactive are those of the source. The rule behind the calls is not given here.

Legend:
[1] = tested on: Trichophyton mentagrophytes; assay: Antifungal activity against Trichophyton mentagrophytes assessed as lowest dose level for total inhibition of fungal growth; format: functional
[2] = tested on: Trichophyton rubrum; assay: Antifungal activity against Trichophyton rubrum assessed as lowest dose level for total inhibition of fungal growth; format: functional
[3] = tested on: Streptococcus pyogenes; assay: Antibacterial activity against Streptococcus pyogenes assessed as lowest dose level for total inhibition of bacterial growth; format: functional
[4] = tested on: Phialophora verrucosa; assay: Antifungal activity against Phialophora verrucosa assessed as lowest dose level for total inhibition of fungal growth; format: functional
[5] = tested on: Candida albicans; assay: Antifungal activity against Candida albicans assessed as lowest dose level for total inhibition of fungal growth; format: functional
[6] = tested on: Candida tropicalis; assay: Antifungal activity against Candida tropicalis assessed as lowest dose level for total inhibition of fungal growth; format: functional
[7] = tested on: Staphylococcus haemolyticus; assay: Antibacterial activity against Staphylococcus haemolyticus assessed as lowest dose level for total inhibition of bacterial growth; format: functional
[8] = tested on: Mucor; assay: Antifungal activity against Mucor species assessed as lowest dose level for total inhibition of fungal growth; format: functional
[9] = tested on: Sporothrix schenckii; assay: Antifungal activity against Sporothrix schenckii assessed as lowest dose level for total inhibition of fungal growth; format: functional
[10] = tested on: Saprolegnia; assay: Antifungal activity against Saprolegnia species assessed as lowest dose level for total inhibition of fungal growth; format: functional
[11] = tested on: Candida albicans; assay: In vivo antifungal activity against Candida albicans topically infected in guinea pig assessed as animal cured at 10 mg/kg, po; format: functional, organism-based; parameters: dose 10 mg/kg
[12] = tested on: Erysipelothrix rhusiopathiae; assay: Antibacterial activity against Erysipelothrix insidiosa assessed as lowest dose level for total inhibition of bacterial growth; format: functional
[13] = tested on: Microsporum canis; assay: Antifungal activity against Microsporum canis assessed as lowest dose level for total inhibition of fungal growth; format: functional
[14] = tested on: Cryptococcus neoformans; assay: Antifungal activity against Cryptococcus neoformans assessed as lowest dose level for total inhibition of fungal growth; format: functional
[15] = tested on: Aspergillus fumigatus; assay: Antifungal activity against Aspergillus fumigatus assessed as lowest dose level for total inhibition of fungal growth; format: functional

Clc1ccc(CCC(Cn2ccnc2)c2ccc(Cl)cc2Cl)c(Cl)c1.O=[N+]([O-])O (stereo not given)
Activity [1]: <1 µg/mL | Activity [2]: <1 µg/mL | Activity [3]: <1 µg/mL | Activity [4]: >100 µg/mL | Activity [5]: >100 µg/mL | Activity [6]: >100 µg/mL | Activity [7]: 100 µg/mL | Activity [8]: >100 µg/mL | Activity [9]: 10 µg/mL | Activity [10]: 100 µg/mL | Activity [11]: inactive | Activity [12]: <1 µg/mL | Activity [13]: 10 µg/mL | Activity [14]: <1 µg/mL | Activity [15]: 100 µg/mL
